According to USRE39591E1, “6-O-substituted ketolides having antibacterial activity” (Abbott Laboratories, priority 1996, dated 2007):
Values after ≈ are worked out from the molar mass of the structure shown.

Tested on: up to 32 different microorganisms
Assay: in vitro antibacterial activity (MIC), agar dilution on Brain Heart Infusion (BHI) agar with Steers replicator
Type: cell-based
Conditions: unit assumed
Summary of the method: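 Agar dilution MIC: twelve successive compound dilutions in BHI agar, spot-inoculated with 1:100 (1:10 for slow growers) organism dilutions by Steers replicator, incubated 35-37° C for 20-24 h. MIC is lowest concentration showing no growth, slight haze or sparse colonies versus drug-free control; erythromycin A as class reference.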

[1] = Candida albicans CCH 442 (code TT)
[2] = Enterococcus faecism ATCC 8043 (code II)
[3] = Escherichia coli DC-2 (code SS)
[4] = Escherichia coli JUHL (code QQ)
[5] = Haemophilis influenzae DILL AMP R (code WW)
[6] = Micrococcus luteus ATCC 4698 (code PP)
[7] = Mycobacterium smegmatis ATCC 114 (code UU)
[8] = Nocardia Asteroides ATCC9970 (code VV)
[9] = Staphylococcus aureus 1775 (code GG)
[10] = Staphylococcus aureus A5177 (code BB)
[11] = Staphylococcus aureus A-5278 (code CC)
[12] = Staphylococcus aureus ATCC 6538P (code AA)
[13] = Staphylococcus aureus CMX 553 (code FF)
[14] = Staphylococcus aureus CMX 642A (code DD)
[15] = Staphylococcus aureus NCTC10649M (code EE)
[16] = Staphylococcus epidermidis 3519 (code HH)
[17] = Streptococcus Pneumonia 5649 (code ZZA)
[18] = Streptococcus Pneumonia 5979 (code ZZ)
[19] = Streptococcus Pneumonia ATCC6303 (code XX)
[20] = Streptococcus Pneumonia GYR 1171 (code YY)
[21] = Streptococcus agalactiae CMX 508 (code KK)
[22] = Streptococcus bovis A-5169 (code JJ)
[23] = Streptococcus pyogenes 930 (code MM)
[24] = Streptococcus pyogenes EES61 (code LL)
[25] = Streptococcus pyogenes PIU 2548 (code NN)
[26] = Micrococcus luteus ATCC 9341 (code OO)

Structure (SMILES): C=CCO[C@@]1(C)C[C@@H](C)C(=O)[C@H](C)[C@H]2OC(=O)O[C@]2(C)[C@@H](CC)OC(=O)[C@H](C)C(=O)[C@H](C)[C@H]1O[C@@H]1O[C@H](C)C[C@H](N(C)C)[C@H]1O [Example 71, Compound of Formula (IX): L is CO, T is O, R is —CH2CH═CH2]
- MIC [1]: > 100 µg/mL
- MIC [2]: 1.56 µg/mL
- MIC [3]: > 100 µg/mL
- MIC [4]: > 100 µg/mL
- MIC (Escherichia coli SS (code RR)): 3.1 µg/mL
- MIC [5]: 64 µg/mL
- MIC [6]: 0.78 µg/mL
- MIC [7]: 25 µg/mL
- MIC [8]: 0.39 µg/mL
- MIC [9]: > 100 µg/mL
- MIC [10]: 0.39 µg/mL
- MIC [11]: > 100 µg/mL
- MIC [12]: 0.78 µg/mL
- MIC [13]: 3.1 µg/mL
- MIC [14]: 1.56 µg/mL
- MIC [15]: 0.78 µg/mL
- MIC [16]: 3.1 µg/mL
- MIC [17]: 1 µg/mL
- MIC [18]: > 128 µg/mL
- MIC [19]: 0.25 µg/mL
- MIC [20]: 0.25 µg/mL
- MIC [21]: 0.2 µg/mL
- MIC [22]: 0.2 µg/mL
- MIC [23]: > 100 µg/mL
- MIC [24]: 0.39 µg/mL
- MIC [25]: 0.39 µg/mL

Structure (SMILES): CC[C@H]1OC(=O)[C@H](C)C(=O)[C@H](C)[C@@H](O[C@@H]2O[C@H](C)C[C@H](N(C)C)[C@H]2O)[C@@](C)(OCC=NOCc2cccc3ccccc23)C[C@@H](C)C(=O)[C@H](C)[C@H]2NC(=O)O[C@@]21C [Example 235, Compound of Formula (IX): L is CO, T is NH, R is —CH2CH═NOCH2(1-naphthyl)]
- MIC (organism code AA): 0.2 µg/mL
- MIC (organism code BB): 0.2 µg/mL
- MIC (organism code CC): > 100 µg/mL
- MIC (organism code DD): 0.2 µg/mL
- MIC (organism code EE): 0.2 µg/mL
- MIC (organism code FF): 0.2 µg/mL
- MIC (organism code GG): > 100 µg/mL
- MIC (organism code HH): 0.2 µg/mL
- MIC (organism code II): 0.05 µg/mL
- MIC (organism code JJ): 0.01 µg/mL
- MIC (organism code KK): 0.01 µg/mL
- MIC (organism code LL): 0.01 µg/mL
- MIC (organism code MM): 25 µg/mL
- MIC (organism code NN): 0.2 µg/mL
- MIC (organism code OO): 0.05 µg/mL
- MIC (organism code PP): 0.39 µg/mL
- MIC (organism code QQ): > 100 µg/mL
- MIC (organism code RR): 0.78 µg/mL
- MIC (organism code SS): > 100 µg/mL
- MIC (organism code TT): > 100 µg/mL
- MIC (organism code UU): 0.78 µg/mL
- MIC (organism code VV): 3.1 µg/mL
- MIC (organism code WW): 4 µg/mL
- MIC (organism code XX): 0.03 µg/mL
- MIC (organism code YY): 0.03 µg/mL
- MIC (organism code ZZ): 32 µg/mL
- MIC (organism code ZZA): 0.5 µg/mL

Structure (SMILES): CC[C@H]1OC(=O)[C@H](C)C(=O)[C@H](C)[C@@H](O[C@@H]2O[C@H](C)C[C@H](N(C)C)[C@H]2O)[C@@](C)(OCCNCc2ccccc2)C[C@@H](C)C(=O)[C@H](C)[C@@H](O)[C@]1(C)O [Example 9, Compound of Formula (VIII): X is O, R is —CH2CH2NHCH2-Phenyl]
- MIC [1]: > 100 µg/mL
- MIC [2]: 0.78 µg/mL
- MIC [3]: 25 µg/mL
- MIC [4]: 25 µg/mL
- MIC (Escherichia coli SS (code RR)): 0.39 µg/mL
- MIC [5]: 16 µg/mL
- MIC [6]: 0.78 µg/mL
- MIC [26]: 0.2 µg/mL
- MIC [7]: 6.2 µg/mL
- MIC [8]: 0.2 µg/mL
- MIC [9]: > 100 µg/mL
- MIC [10]: 1.56 µg/mL
- MIC [11]: > 100 µg/mL
- MIC [12]: 3.1 µg/mL
- MIC [13]: 3.1 µg/mL
- MIC [14]: 6.2 µg/mL
- MIC [15]: 0.78 µg/mL
- MIC [16]: 3.1 µg/mL
- MIC [17]: 4 µg/mL
- MIC [18]: > 64 µg/mL
- MIC [19]: 0.25 µg/mL
- MIC [20]: 0.25 µg/mL
- MIC [21]: 0.39 µg/mL
- MIC [22]: 0.05 µg/mL
- MIC [23]: > 100 µg/mL
- MIC [24]: 0.39 µg/mL
- MIC [25]: 0.78 µg/mL

Structure (SMILES): CC[C@H]1OC(=O)[C@H](C)C(=O)[C@H](C)[C@@H](O[C@@H]2O[C@H](C)C[C@H](N(C)C)[C@H]2O)[C@@](C)(OCCNCCCCc2ccccc2)C[C@@H](C)C(=O)[C@H](C)[C@H]2NC(=O)O[C@@]21C [Example 224]
- MIC (organism code AA): 0.39 µg/mL (≈ 0.504 µM)
- MIC (organism code BB): 0.2 µg/mL (≈ 0.258 µM)
- MIC (organism code CC): > 100 µg/mL
- MIC (organism code DD): 0.2 µg/mL (≈ 0.258 µM)
- MIC (organism code EE): 0.2 µg/mL (≈ 0.258 µM)
- MIC (organism code FF): 0.2 µg/mL (≈ 0.258 µM)
- MIC (organism code GG): > 100 µg/mL
- MIC (organism code HH): 0.39 µg/mL (≈ 0.504 µM)
- MIC (organism code II): 0.01 µg/mL (≈ 0.0129 µM)
- MIC (organism code JJ): 0.01 µg/mL (≈ 0.0129 µM)
- MIC (organism code KK): ≤ 0.005 µg/mL
- MIC (organism code LL): 0.01 µg/mL (≈ 0.0129 µM)
- MIC (organism code MM): > 100 µg/mL
- MIC (organism code NN): 0.2 µg/mL (≈ 0.258 µM)
- MIC (organism code OO): 0.02 µg/mL (≈ 0.0258 µM)
- MIC (organism code PP): 0.2 µg/mL (≈ 0.258 µM)
- MIC (organism code QQ): 25 µg/mL (≈ 32.3 µM)
- MIC (organism code RR): 0.2 µg/mL (≈ 0.258 µM)
- MIC (organism code SS): 25 µg/mL (≈ 32.3 µM)
- MIC (organism code TT): > 100 µg/mL
- MIC (organism code UU): 3.1 µg/mL (≈ 4.01 µM)
- MIC (organism code VV): 0.1 µg/mL (≈ 0.129 µM)
- MIC (organism code WW): 4 µg/mL (≈ 5.17 µM)
- MIC (organism code XX): 0.03 µg/mL (≈ 0.0388 µM)
- MIC (organism code YY): 0.03 µg/mL (≈ 0.0388 µM)
- MIC (organism code ZZ): > 128 µg/mL
- MIC (organism code ZZA): 2 µg/mL (≈ 2.58 µM)

Structure (SMILES): CC[C@H]1OC(=O)[C@H](C)C(=O)[C@H](C)[C@@H](O[C@@H]2O[C@H](C)C[C@H](N(C)C)[C@H]2O)[C@@](C)(OCC=Cc2cnc3ccccc3c2)C[C@@H](C)C(=O)[C@H](C)[C@H]2N(C)C(=O)O[C@]12C [Example 180, Compound of Formula (IX): L is CO, T is N(CH3), R is —CH2CH═CH-(3-quinolyl)]
- MIC [1]: > 100 µg/mL
- MIC [2]: 0.05 µg/mL
- MIC [3]: > 100 µg/mL
- MIC [4]: > 100 µg/mL
- MIC (Escherichia coli SS (code RR)): 0.2 µg/mL
- MIC [5]: 4 µg/mL
- MIC [6]: 0.1 µg/mL
- MIC [26]: 0.02 µg/mL
- MIC [7]: 0.2 µg/mL
- MIC [8]: 0.1 µg/mL
- MIC [9]: > 100 µg/mL
- MIC [10]: 0.1 µg/mL
- MIC [11]: > 100 µg/mL
- MIC [12]: 0.1 µg/mL
- MIC [13]: 0.1 µg/mL
- MIC [14]: 0.1 µg/mL
- MIC [15]: 0.1 µg/mL
- MIC [16]: 0.1 µg/mL
- MIC [17]: 0.25 µg/mL
- MIC [18]: 128 µg/mL
- MIC [19]: 0.03 µg/mL
- MIC [20]: 0.03 µg/mL
- MIC [21]: 0.05 µg/mL
- MIC [22]: 0.02 µg/mL
- MIC [23]: 25 µg/mL
- MIC [24]: 0.02 µg/mL
- MIC [25]: 0.2 µg/mL

Structure (SMILES): CC[C@H]1OC(=O)[C@H](C)C(=O)[C@H](C)[C@@H](O[C@@H]2O[C@H](C)C[C@H](N(C)C)[C@H]2O)[C@@](C)(OCCNCc2cnc3ccccc3c2)C[C@@H](C)C(=O)[C@H](C)[C@H]2NC(=O)O[C@@]21C [Example 226, Compound of Formula (IX): L is CO, T is NH, R is —CH2CH2NHCH2(3-quinolyl)]
- MIC (organism code AA): 0.1 µg/mL
- MIC (organism code BB): 0.1 µg/mL
- MIC (organism code CC): > 100 µg/mL
- MIC (organism code DD): 0.1 µg/mL
- MIC (organism code EE): 0.1 µg/mL
- MIC (organism code FF): 0.1 µg/mL
- MIC (organism code GG): > 100 µg/mL
- MIC (organism code HH): 0.1 µg/mL
- MIC (organism code II): 0.05 µg/mL
- MIC (organism code JJ): 0.01 µg/mL
- MIC (organism code KK): 0.02 µg/mL
- MIC (organism code LL): 0.01 µg/mL
- MIC (organism code MM): 6.2 µg/mL
- MIC (organism code NN): 0.39 µg/mL
- MIC (organism code OO): 0.02 µg/mL
- MIC (organism code PP): 0.1 µg/mL
- MIC (organism code QQ): 6.2 µg/mL
- MIC (organism code RR): 0.2 µg/mL
- MIC (organism code SS): 12.5 µg/mL
- MIC (organism code TT): > 100 µg/mL
- MIC (organism code UU): 9.78 µg/mL
- MIC (organism code VV): 0.05 µg/mL
- MIC (organism code WW): 2 µg/mL
- MIC (organism code XX): 0.03 µg/mL
- MIC (organism code YY): 0.03 µg/mL
- MIC (organism code ZZ): > 128 µg/mL
- MIC (organism code ZZA): 2 µg/mL
